The structures appear in SMILES notation.

The first assay has as its system HSB-2 cells. Nature of the assay: Inhibition of HSB-2 leukemic cell line proliferation (WST-1). The settings on record: Homo sapiens, HSB2, 48 h, cytotoxicity on HSB-2 cells, two days incubation, WST-1 read-out. The assay is classed as cell-based, human. As for the experimental part:
HSB2 cell line, a human acute lymphoblastic leukemia (ATCC; CCL-120.1) cell line, was grown in RPMI-1640 medium (Lonza, Belgium) supplemented with 10% fetal calf serum (Hyclone, US) and antibiotics. Exponential growing phase cells were seed in flat bottom 96-well microplates (TTP, Switzerland) at 50000 cells per well in 220 μl of medium with compounds (in different concentrations) and incubated for two days at 37° C., 5% CO2. After incubation, 100 μl of supernatant were removed and 10 μl of WST-1 (Roche, Switzerland) were added. After 2 hour incubation at 37° C., 5% CO2, optical densities were measured at 450 nm. Proliferation is calculated with respect of control points (no compound and treatment with Triton X100 to have maximum and minimum proliferation data). The IC50 was determined from a graph with at least four points, each derived from the mean of at least 2 experiments. […] The results are shown in Table 1 for a number of compounds.
A general note: Tetrazolium assays rely on reduction of a dye to a coloured formazan, in cell work by metabolically active cells.
As usually defined, the IC50 is the midpoint of a concentration-inhibition curve. Consider `Nc1nc(N2CCN(C(=O)COc3ccc(Cl)cc3)CC2)c2nc(-c3ccccc3)sc2n1` [Example 215, 1-(4-(5-amino-2-phenylthiazolo[5,4-d]pyrimidin-7-yl)piperazin-1-yl)-2-(4-chlorophenoxy)ethanone], for which the IC50 came out at 0.24 µM.
`COc1ccc(OCC(=O)N2CCN(c3nc(N)nc4sc(CCc5ccc(OC)c(OC)c5)nc34)CC2)cc1` [Example 257, 1-(4-(5-amino-2-(3,4-dimethoxyphenethyl)thiazolo[5,4-d]pyrimidin-7-yl)piperazin-1-yl)-2-(4-methoxyphenoxy)ethanone]: the IC50 is over 10 µM.
As to `Cc1ccc(CCc2nc3c(N4CCN(C(=O)COc5ccc(Cl)cc5)CC4)nc(N)nc3s2)cc1` [Example 260, 1-(4-(5-amino-2-(4-methylphenethyl)thiazolo[5,4-d]pyrimidin-7-yl)piperazin-1-yl)-2-(4-chlorophenoxy)ethanone], the IC50 is 4.49 µM.
In the case of `Nc1nc(N2CCN(C(=O)COc3ccc(F)cc3)CC2)c2cc(-c3ccccc3)sc2n1` [Example 370, 1-(4-(2-amino-6-phenylthieno[2,3-d]pyrimidin-4-yl)piperazin-1-yl)-2-(4-fluorophenoxy)ethanone], the IC50 stood at 6.38 µM.
On the same count and under the same terms, under `COc1ccc(OCC(=O)N2CCN(c3nc(N)nc4sc(CCc5ccc(Br)cc5)nc34)CC2)cc1` [Example 298, 1-(4-(5-amino-2-(4-bromophenethyl)thiazolo[5,4-d]pyrimidin-7-yl)piperazin-1-yl)-2-(4-methoxyphenoxy)ethanone] stands over 10 µM; under `Nc1nc(N2CCN(C(=O)COc3ccc(Br)cc3)CC2)c2nc(Cc3ccc(F)cc3)sc2n1` [Example 231, 1-(4-(5-amino-2-(4-fluorobenzyl)thiazolo[5,4-d]pyrimidin-7-yl)piperazin-1-yl)-2-(4-bromophenoxy)ethanone], 2.63 µM; under `Nc1nc(N2CCN(C(=O)COc3ccc(Cl)cc3)CC2)c2nc(CCCc3ccc(F)cc3)sc2n1` [Example 290, 1-(4-(5-amino-2-(3-(4-fluorophenyl)propyl)thiazolo[5,4-d]pyrimidin-7-yl)piperazin-1-yl)-2-(4-chlorophenoxy)ethanone], over 10 µM.
As for `COc1ccc(OCC(=O)N2CCN(c3nc(N)nc4sc(CCCc5ccc(F)cc5)nc34)CC2)cc1` [Example 291, 1-(4-(5-amino-2-(3-(4-fluorophenyl)propyl)thiazolo[5,4-d]pyrimidin-7-yl)piperazin-1-yl)-2-(4-methoxyphenoxy)ethanone], the concentration for half-maximal inhibition (IC50) is over 10 µM.
For the molecule `Nc1nc(N2CCN(C(=O)COc3ccc(O)cc3)CC2)c2nc(CCc3ccc(F)cc3)sc2n1` [Example 224, 1-(4-(5-amino-2-(4-fluorophenethyl)thiazolo[5,4-d]pyrimidin-7-yl)piperazin-1-yl)-2-(4-hydroxyphenoxy)ethanone], the IC50 turned out to be 3.94 µM.
On to `COc1ccc(OCC(=O)N2CCN(c3nc(N)nc4sc(-c5ccc(F)cc5)nc34)CC2)cc1` [Example 234, 1-(4-(5-amino-2-(4-fluorophenyl)thiazolo[5,4-d]pyrimidin-7-yl)piperazin-1-yl)-2-(4-methoxyphenoxy)ethanone], for which the IC50 worked out at 0.2 µM.
As for `COc1ccc(CCc2nc3c(N4CCN(C(=O)COc5ccc(Br)cc5)CC4)nc(N)nc3s2)cc1OC` [Example 256, 1-(4-(5-amino-2-(3,4-dimethoxyphenethyl)thiazolo[5,4-d]pyrimidin-7-yl)piperazin-1-yl)-2-(4-bromophenoxy)ethanone], the IC50 was over 10 µM.
Take `Nc1nc(N2CCN(C(=O)COc3ccc(OC(F)(F)F)cc3)CC2)c2nc(CCc3ccc(F)cc3)sc2n1` [Example 226, 1-(4-(5-amino-2-(4-fluorophenethyl)thiazolo[5,4-d]pyrimidin-7-yl)piperazin-1-yl)-2-(4-(trifluoromethoxy)phenoxy)ethanone]: the IC50 was over 10 µM.
As to `O=C(COc1ccc(Cl)cc1)N1CCN(c2ncnc3sc(-c4ccc(F)cc4)nc23)CC1` [Example 301, 1-(4-(2-(4-fluorophenyl)thiazolo[5,4-d]pyrimidin-7-yl)piperazin-1-yl)-2-(4-chlorophenoxy)ethanone], the IC50 was determined as 2.06 µM.
In the case of `Nc1nc(N2CCN(C(=O)COc3ccc(F)cc3)CC2)c2nc(-c3ccc(F)cc3)sc2n1` [Example 233, 1-(4-(5-amino-2-(4-fluorophenyl)thiazolo[5,4-d]pyrimidin-7-yl)piperazin-1-yl)-2-(4-fluorophenoxy)ethanone], the half-maximal inhibitory concentration (IC50) is over 10 µM.
The same measure, in the same setting: the figure for `Nc1nc(N2CCN(C(=O)COc3ccc(Cl)cc3)CC2)c2nc(CCc3ccc(Br)cc3)sc2n1` [Example 299, 1-(4-(5-amino-2-(4-bromophenethyl)thiazolo[5,4-d]pyrimidin-7-yl)piperazin-1-yl)-2-(4-chlorophenoxy)ethanone] is 3.72 µM; for `COc1ccc(OCC(=O)N2CCN(c3nc(N)nc4sc(CCc5cccc(OC)c5)nc34)CC2)cc1` [Example 253, 1-(4-(5-amino-2-(3-methoxyphenethyl)thiazolo[5,4-d]pyrimidin-7-yl)piperazin-1-yl)-2-(4-methoxyphenoxy)ethanone] it is 4.99 µM.
As for `COc1ccc(OCC(=O)N2CCN(c3nc(N)nc4sc(-c5ccc(C)cc5)nc34)CC2)cc1` [Example 294, 1-(4-(5-amino-2-p-tolylthiazolo[5,4-d]pyrimidin-7-yl)piperazin-1-yl)-2-(4-methoxyphenoxy)ethanone], the IC50 stood at 4.16 µM.
For the molecule `COc1ccc(OCC(=O)N2CCN(c3nc(N)nc4sc(Cc5ccc(F)cc5)nc34)CC2)cc1` [Example 230, 1-(4-(5-amino-2-(4-fluorobenzyl)thiazolo[5,4-d]pyrimidin-7-yl)piperazin-1-yl)-2-(4-methoxyphenoxy)ethanone], the IC50 was 2.21 µM.
The same measure, in the same setting: the figure for `COC(=O)c1ccc(OCC(=O)N2CCN(c3nc(N)nc4sc(CCc5ccc(F)cc5)nc34)CC2)cc1` [Example 225, methyl 4-(2-(4-(5-amino-2-(4-fluorophenethyl)thiazolo[5,4-d]pyrimidin-7-yl)piperazin-1-yl)-2-oxoethoxy)benzoate] is over 10 µM.
For the molecule `COc1ccc(OCC(=O)N2CCN(c3nc(N)nc4sc(CCc5ccc(C)cc5)nc34)CC2)cc1` [Example 259, 1-(4-(5-amino-2-(4-methylphenethyl)thiazolo[5,4-d]pyrimidin-7-yl)piperazin-1-yl)-2-(4-methoxyphenoxy)ethanone], the IC50 is 3 µM.
`Nc1nc(N2CCN(C(=O)COc3ccc(Cl)cc3)CC2)c2nc(CCCCc3ccc(F)cc3)sc2n1` [Example 292, 1-(4-(5-amino-2-(4-(4-fluorophenyl)butyl)thiazolo[5,4-d]pyrimidin-7-yl)piperazin-1-yl)-2-(4-chlorophenoxy)ethanone]: the half-maximal inhibitory concentration (IC50) amounted to 9.79 µM.
Still for that read-out and setting: under `Cc1ccc(CCc2nc3c(N4CCN(C(=O)COc5ccc(Br)cc5)CC4)nc(N)nc3s2)cc1` [Example 258, 1-(4-(5-amino-2-(4-methylphenethyl)thiazolo[5,4-d]pyrimidin-7-yl)piperazin-1-yl)-2-(4-bromophenoxy)ethanone] stands over 10 µM; under `CC(=O)c1ccc(OCC(=O)N2CCN(c3nc(N)nc4sc(CCc5ccc(F)cc5)nc34)CC2)cc1` [Example 227, 2-(4-acetylphenoxy)-1-(4-(5-amino-2-(4-fluorophenethyl)thiazolo[5,4-d]pyrimidin-7-yl)piperazin-1-yl)ethanone], over 10 µM; under `Nc1nc(N2CCN(C(=O)COc3cccc(Cl)c3)CC2)c2nc(CCc3ccc(F)cc3)sc2n1` [Example 228, 1-(4-(5-amino-2-(4-fluorophenethyl)thiazolo[5,4-d]pyrimidin-7-yl)piperazin-1-yl)-2-(3-chlorophenoxy)ethanone], over 10 µM.
On to `COc1cccc(CCc2nc3c(N4CCN(C(=O)COc5ccc(Cl)cc5)CC4)nc(N)nc3s2)c1` [Example 255, 1-(4-(5-amino-2-(3-methoxyphenethyl)thiazolo[5,4-d]pyrimidin-7-yl)piperazin-1-yl)-2-(4-chlorophenoxy)ethanone], for which the half-maximal inhibitory concentration (IC50) is 2.1 µM.
As to `Cc1ccc(-c2nc3c(N4CCN(C(=O)COc5ccc(Cl)cc5)CC4)nc(N)nc3s2)cc1` [Example 295, 1-(4-(5-amino-2-p-tolylthiazolo[5,4-d]pyrimidin-7-yl)piperazin-1-yl)-2-(4-chlorophenoxy)ethanone], the 50% inhibitory concentration (IC50) was 0.23 µM.
On to `COc1cccc(CCc2nc3c(N4CCN(C(=O)COc5ccc(Br)cc5)CC4)nc(N)nc3s2)c1` [Example 254, 1-(4-(5-amino-2-(3-methoxyphenethyl)thiazolo[5,4-d]pyrimidin-7-yl)piperazin-1-yl)-2-(4-bromophenoxy)ethanone], for which the IC50 is over 10 µM.
Consider `Nc1nc(N2CCN(C(=O)COc3ccc(Br)cc3)CC2)c2cc(-c3ccccc3)sc2n1` [Example 372, 1-(4-(2-amino-6-phenylthieno[2,3-d]pyrimidin-4-yl)piperazin-1-yl)-2-(4-bromophenoxy)ethanone], for which the 50% inhibitory concentration (IC50) amounted to 9.87 µM.
`COc1ccc(OCC(=O)N2CCN(c3nc(N)nc4sc(CCCCc5ccc(F)cc5)nc34)CC2)cc1` [Example 293, 1-(4-(5-amino-2-(4-(4-fluorophenyl)butyl)thiazolo[5,4-d]pyrimidin-7-yl)piperazin-1-yl)-2-(4-methoxyphenoxy)ethanone]: the IC50 was 0.83 µM.

The assay is the same for the next values; noted with them: cytotoxicity on HSB-2 cells, two days incubation, WST-1 read-out.
For `Nc1nc(N2CCN(C(=O)COc3ccc(Br)cc3)CC2)c2nc(-c3ccc(F)cc3)sc2n1` [Example 235, 1-(4-(5-amino-2-(4-fluorophenyl)thiazolo[5,4-d]pyrimidin-7-yl)piperazin-1-yl)-2-(4-bromophenoxy)ethanone], the IC50 stood at 0.55 µM.

The values are drawn from US9573966B2, “Anti-cancer activity of novel bicyclic heterocycles” (Katholieke Universiteit Leuven, K.U.Leuven R&D, priority 2010, dated 2017).
